Results as given in US20210379010A1, “COMPOSITIONS COMPRISING CANNABINOIDS FOR USE IN THE TREATMENT OF BIOFILM AND CONDITIONS ASSOCIATED WITH MICROBIAL, FUNGAL, BACTERIAL INFECTIONS” (Yissum Research Development Company of The Hebrew …, priority 2018, published 2021).

Columns and labels:
[1] = system: fluconazole resistant C. albicans strain DSY735 biofilm; conditions: Table 2
[2] = system: fluconazole resistant C. albicans strain DSY551 biofilm; conditions: Table 2
[3] = MBIC of fluconazole in combination with ARAS

## OC(Cn1cncn1)(Cn1cncn1)c1ccc(F)cc1F [FLU, fluconazole, reference compound]
[1]; [3]
  FBIC FLU: 4 µg/mL
[1]; fluconazole alone
  MBIC FLU: >64 µg/mL
[2]; [3]
  FBIC FLU: 2 µg/mL
[2]; fluconazole alone
  MBIC FLU: >64 µg/mL
